From US20150245613A1 (priority 2012, published 2015)
Read-outs that look alike come from different tables or passages of the source.

What was measured:
[1] = test system: wheat Fusarium head blight; type: in vivo, Fusarium graminearum; settings: cut wheat ears, 5 days after inoculation
[2] = test system: wheat Fusarium head blight; type: in vivo, Fusarium graminearum; settings: cut wheat ears, 5 days after inoculation; remark: listed apart in the source
wheat brown rust = assay: Test Example 5: controlling effect on wheat brown rust, field test (cultivar NORIN No. 61), Colby; type: in vivo, Puccinia recondita; settings: 20 days after spray
Description: A (theoretical) preventive value obtained in a case where the chemical suspension is sprayed=A1+((100−A1)×A2)/100
where A1 and A2 represent (i) the preventive value obtained in a case where the compound I-1 is sprayed and (ii) the preventive value obtained in a case where fluxapyroxad is sprayed.
Wheat seeds (cultivar: NORIN No. 61) were sown in a field in autumn of one (1) year earlier than a year when chemicals were sprayed, and the chemicals were sprayed over wheat plants at the flowering stage of the wheat plants. […] Specifically, the wheat seeds were sown in two rows with 30 cm inter-row spacing in the field in the autumn. (i) Chemical suspensions each of which contained the compound I-1 and Fluxapyroxad, (ii) a chemical suspension containing the compound I-1 and (iii) chemical suspensions each of which contained Fluxapyroxad, were diluted with water so that each ingredient of the chemical suspensions was in a predetermined amount to be used. Each of the chemical suspensions was then sprayed over the wheat plants at the flowering stage in the year. After the spray of the chemical suspensions, a pot, in which diseased wheat plants with brown rust were planted, was put in each test plot between the two rows of the wheat plants so that the wheat plants were prompted to get infected with wheat brown rust. Each test was conducted in three test plots, each of which test plots is of 0.5 m×4 m (2 m^2). In 20 days after the spray of the chemical suspensions, the occurrence of wheat brown rust was investigated in 20 flag leaves which were selected at random from one of the three test plots. An index of the occurrence (index of disease severity of wheat brown rust) was then calculated. A theoretical preventive value (an expected preventive value) obtained in a case where the chemical suspension containing the compound I-1 and Fluxapyroxad is sprayed was calculated, by use of the above Colby's formula (see Test Example 1), on the basis of (i) a preventive value obtained in a case where only the compound I-1 is sprayed and (ii) a preventive value obtained in a case where only fluxapyroxad is sprayed.

## Cn1cc(C(=O)Nc2ccccc2-c2cc(F)c(F)c(F)c2)c(C(F)F)n1 [Fluxapyroxad, 3-(difluoromethyl)-1-methyl-N-(3′,4′,5′-trifluorobiphenyl-2-yl)pyrazole-4-carboxamido]
[1]; Compound I-1 0 g/ha, Fluxapyroxad 10 g/ha
  Actual preventive value: 3
[1]; Compound I-1 0 g/ha, Fluxapyroxad 20 g/ha
  Actual preventive value: 0
[1]; Compound I-1 0 g/ha, Fluxapyroxad 40 g/ha
  Actual preventive value: 4
[2]; Compound I-2 0 g/ha, Fluxapyroxad 10 g/ha
  Actual preventive value: 8
[2]; Compound I-2 0 g/ha, Fluxapyroxad 20 g/ha
  Actual preventive value: 16
[2]; Compound I-2 0 g/ha, Fluxapyroxad 30 g/ha
  Actual preventive value: 14
[2]; Compound I-2 0 g/ha, Fluxapyroxad 40 g/ha
  Actual preventive value: 9
Wheat brown rust; Compound I-1 0 g/ha, Fluxapyroxad 7.5 g/ha, from average disease occurrence area ratios of flag leaves
  Actual preventive value: 29.3
Wheat brown rust; Compound I-1 0 g/ha, Fluxapyroxad 7.5 g/ha, from disease occurrence ratios of flag leaves
  Actual preventive value: 6.8
Wheat brown rust; Compound I-1 0 g/ha, Fluxapyroxad 30 g/ha, from average disease occurrence area ratios of flag leaves
  Actual preventive value: 80.6
Wheat brown rust; Compound I-1 0 g/ha, Fluxapyroxad 30 g/ha, from disease occurrence ratios of flag leaves
  Actual preventive value: 64.4

## C[C@]1(CCl)CC[C@@H](Cc2ccc(F)cc2)[C@]1(O)Cn1cncn1 (racemic) [Compound I-2, (1RS,2SR,5SR)-2-chloromethyl-5-(4-fluorobenzyl)-2-methyl-1-(1H-1,2,4-triazole-1-ylmethy)cyclopentanol]
[2]; Compound I-2 5 g/ha, Fluxapyroxad 0 g/ha
  Actual preventive value: 34
[2]; Compound I-2 10 g/ha, Fluxapyroxad 0 g/ha
  Actual preventive value: 45
[2]; Compound I-2 15 g/ha, Fluxapyroxad 0 g/ha
  Actual preventive value: 62
[2]; Compound I-2 20 g/ha, Fluxapyroxad 0 g/ha
  Actual preventive value: 78

## C[C@]1(CCl)CC[C@@H](Cc2ccc(Cl)cc2)[C@]1(O)Cn1cncn1 (racemic) [Compound I-1, (1RS,2SR,5SR)-5-(4-chlorobenzyl)-2-chloromethyl-2-methyl-1-(1H-1,2,4-triazole-1-ylmethyl)cyclopentanol]
[1]; Compound I-1 5 g/ha, Fluxapyroxad 0 g/ha
  Actual preventive value: 13
[1]; Compound I-1 10 g/ha, Fluxapyroxad 0 g/ha
  Actual preventive value: 39
[1]; Compound I-1 20 g/ha, Fluxapyroxad 0 g/ha
  Actual preventive value: 61
Wheat brown rust; Compound I-1 7.5 g/ha, Fluxapyroxad 0 g/ha, from average disease occurrence area ratios of flag leaves
  Actual preventive value: 42.6
Wheat brown rust; Compound I-1 7.5 g/ha, Fluxapyroxad 0 g/ha, from disease occurrence ratios of flag leaves
  Actual preventive value: 16.4
